“And” between values parts separate entries of the source, which are not always exact repeats. Equal values may be shown once.
Tests used:
RPMI4788 cells = assay: Alcohol enhanced pulmonary metastasis of RPMI4788 cells in nude mice (nodules on lung surface); format: in vivo
Description: Ingredients of Supplement except Coenzyme Q10 were purchased from Sigma Aldrich Japan (Tokyo, Japan). Ten gram of dextrose, 1.0 gram of Vitamin C, 1.5 gram of L-glutamine, 500 mg of cysteine, 40 mg of riboflavin, 100 mg of succinic acid, 100 mg of fumaric acid, and 10 mg of niacin were dissolved in 100 ml of distilled water (Supplement Solution). One hundred mg of Coenzyme Q10 (Jarrow Formulas, Los Angels, Calif., USA) was dissolved in 14 ml of sesame oil.
Male, 6-week-old nude mice of BALB/cA-jcl-nu/nu class were purchased (Clea Japan Inc., Shizuoka, Japan) and allowed to acclimate for one week prior to the study. During the experiment the mice were maintained at a temperature of 23° C., 50% humidity and a specific-pathogen-free (SPF) condition.
RPM14788 cells derived from human colorectal cancer generate pulmonary metastasis in nude mouse (Moore G E & Koike A (1964), Cancer January, 17: 11-20; Kondo H. et al. (1987), Jpn J Cancer Res (Gann) 78, 12: 1400-1408). The cell line was subcultured in tissue culture flasks with culture medium of RPMI1640 solution (Nikken Biomedical Laboratory, Kyoto, Japan) supplemented with 10% Fetal Bovine Serum. (FBS) (Hycione Laboratories Inc., Logan, Utah) at 37° C., in an atmosphere of 100% humidity, 5% CO2 and 95% air. Following isolation of the cultured cells by 0.02% EDTA, a cell suspension was prepared using PBS of 0.01M; trypan blue staining confirmed cell viability over 98%.
To produce lung metastases, nude mice were injected cell suspension of 5×10^4/0.1 ml into tail vein. Twenty-eight days after the injection, all metastatic nodules on the lung surface were counted. The lung was fixed in 10% neutral formaldehyde and embedded in paraffin. Sections were stained with Hematoxylin-Eosin and examined histologically.
For testing the supplement, 320 μl of supplement solution and 50 μl of Co-Q10 dissolved sesame oil per mouse were administrated to the stomach by oral metal tube. For assaying the effects of Supplement+EtOH, one hour after the supplement administration, 7.0 ml/kg of ethanol were injected into the peritoneal cavity. Then 1 hour after the ethanol injection, 5×10^4/100 μl of RPM14788 cells were injected into the tail vein. The nude mice were sacrificed 28 days after the cell injection and the metastatic nodules on the lung surface were counted.

YAC-1 cells = assay: NK cytotoxic activity of nude mouse splenocytes, short-term 51Cr-release assay; format: in vivo; settings: for NK activity, % Control: EtOH versus control nude mice
Description: A short-term ^51Cr-release assay was used to determine the natural killer (NK) cytotoxic activity. Mice were divided in following 3 groups; control, ethanol administration, and Supplement and ethanol administration. Twenty, four hours after the ethanol administration, splenocytes of the nude mouse were separated as single cell suspension. Target YAC-1 cells (1×10^7) were labeled by incubation with 200 μCi of ^51Cr for 2 hours at 37C. After being washed and then incubated for 2 hours at 37° C., the cells were supplemented in RPMI1640 medium. 20 μl of the labeled target cells and 100 μl of effector cells were mixed into a 96-well microliter plate (Sumitomo Bakelite Co., Ltd., Tokyo, Japan) at various effector/target cell ratios. After 4 hours of incubation, the plates were centrifuged and the radioactivity of the supernatant was measured by a gamma-counter. The percent of cytotoxicity was calculated as (experimental group release−spontaneous release/total release−spontaneous release). Statistical analysis of the results was conducted by t^2 test, and […] was defined as the level of significance.

`CCO` [ETOH, ethanol] was tested. Which “Number of Metastatic nodules on the lung surface, Average” value (RPMI4788 cells; ETOH + 4788, 16 mice) did it give?
The value was 42.25.

What about the “Number of Metastatic nodules on the lung surface, Total” value (RPMI4788 cells; ETOH + 4788, 16 mice) of the same compound?
The value was 676.

What about the “Number of Metastatic nodules on the lung surface” value (RPMI4788 cells; ETOH + 4788, single mouse, ethanol 7.0 ml/kg i.p. 1 h before cells, 28 days) of the same compound?
Its value is 75 and 58 and 69 and 62 and 18 and 19 (2×) and 21 (2×) and 24 and 20 (2×) and 48 and 70 and 64 and 68.

What about the “Total metastatic nodules minus 4788” value (RPMI4788 cells; ETOH + 4788, total minus control total) of the same compound?
The value was 251.

What about the “Enhancement of metastatic potential of 4788 cell line” value (RPMI4788 cells; Ethanol + 4788 versus control) of the same compound?
The value was “approximately 60%”.

What about the NK activity (YAC-1 cells; EtOH) of the same compound?
The NK activity was 11.20%.

What about the “NK activity, % Control” value (YAC-1 cells; listed as EtOH) of the same compound?
The value was 45.5%.

And the “NK activity, % Control” value (YAC-1 cells; listed as Ethanol)?
The value was 45.5%.

And the “Average cont (51Cr release)” value (YAC-1 cells; EtOH, splenocytes 24 h after ethanol)?
The value was 568.6.

— US9402849B2, “Composition for moderating alcohol metabolism and for reducing the risk of alcohol induced diseases” (Tima Foundation, priority 2005, dated 2016)
